Measured values reported in patent publication USRE38825E1, “Glyphosate tolerant plants” (Monsanto Technology LLC, priority 1990, dated 2005).

Assays:
[1] = molecular target: LBAA glyphosate oxidoreductase variant v.247 (v1v2v3: GLY84, ARG153, ARG334), SEQ ID NO:18 (Ochrobactrum sp. G-1, UniProt D2KI28, H334R/K153R/S2A/S84G); test: Kinetic analysis of glyphosate oxidoreductase variant v.247; type: biochemical, bacterial isolate LBAA (Pseudomonas strain LBAA)
Procedure: The mutagenesis procedure used was that of Mn++-poisoned PCR and the template was a linearized glyphosate oxidoreductase gene plasmid containing the synthetic glyphosate oxidoreductase gene (SEQ ID NO:8). The oligonucleotide primers used were homologous to regions in the vector and flanking the glyphosate oxidoreductase gene. The PCR conditions employed were as follows: 1 minute at 94° C., 2 minutes at 55° C., and 3 minutes at 72° C. and with 35 cycles. A 5:1 ratio of dCTP+dGTP+TTP to dATP was used. The reactions contained MnCl2 at 125, 250, 375, or 500 μM. After the reaction, the amplified product was recloned into a vector containing a weak E. coli promoter. This vector was a pBR327 derivative containing the araBAD promoter and suitable cloning sites. One hundred colonies from this cloning step were then screened in E. coli GB993 for improved glyphosate tolerance and utilization phenotypes in media composed of MOPS minimal medium with glyphosate and Pi or with glyphosate alone, respectively. Growth rates were determined by measuring A550 over a 96 hour period. […] The glyphosate oxidoreductase gene was recloned into the expression vector portion and this phenotype verified. All kinetic analysis was performed on crude E. coli lysates. Putative glyphosate oxidoreductase variant proteins were overexpressed after subcloning the NcoI/HindIII variant glyphosate oxidoreductase gene into PrecA-gene10L expression vector. For overexpression in PrecA-gene10L constructs, GB993 cells containing the vector were induced at a Klett=110-120 in M9 minimal medium with 50 μg/ml nalidixic acid and allowed to grow for 2.5 hours at 37° C. with vigorous shaking. Cells were harvested by centrifugation at 4000 g, 5 minutes at 4° C., and resuspend in 100 mM Tris-HCl, pH 7.1, 1 mM EDTA, 35 mM KCl, 20% glycerol, and 1 mM benzamidine at 3 ml/g cell pellet. Lysates were prepared by breaking the cells in a French press, twice, at 1000 psi. Insoluble debris was removed by centrifugation at 12000 g, 15 minutes at 4° C., and the supernatant was de-salted by passing over a PD-10 column (Sephadex G-25, Pharmacia). The void volume fraction was used as the source of enzyme for kinetic analysis. Protein concentrations were determined using the Bio-Rad protein dye-binding assay. Time and enzyme concentration courses were performed to determine linear ranges. […] Ten minutes was determined to be the optimal time for the enzyme assay using 10 μg lysate. After 10 minutes at 30° C. with shaking, 0.25 ml dinitrophenylhydrazine (DNPH) reagent (0.5 mg/ml in 0.5M HCl) was added and the reaction was allowed to proceed for an additional 5 minutes at 30° C. with shaking. A 1.5M NaOH solution (400 μl) was then added to the assay mix, and the reaction was continued for 5 minutes at 30° C. with shaking. Enzyme activity was determined from the amount of glyoxylate-DNPH adduct formed by measuring A520 against a standard of glyoxylate. Enzyme assays are performed in duplicate on at least two different single colony isolates of a putative glyphosate oxidoreductase variant. To determine Km and Vmax, enzyme assays were performed over a (0.2-2.0)×Km range of glyphosate concentrations. The Km and Vmax were determined from Lineweaver Burk, Eadie-Hofstee and hyperbolic kinetic plots. Vmax was estimated after determining the amount of immunoreactive glyphosate oxidoreductase protein in lysates by immunoblot analysis as described below. Immunoblot analysis was performed following SDS-PAGE and transfer of protein from the gel to nitrocellulose at 500 mA in a Hoeffer transfer apparatus in 25 mM Tris-HCl, 192 mM glycine containing 0.1% SDS and 25% methanol for 1-2 hours. After transfer, the nitrocellulose was incubated with 50 mM Tris-HCl, pH7.5, 0.9% NaCl, 0.01% Tween 20, 0.02% NaN3 containing 2% bovine serum albumin at room temperature with shaking for at least 30 minutes. […]

[2] = system: Pseudomonas sp. strain LBr glyphosate oxidoreductase; test: Km of glyphosate oxidoreductase from Pseudomonas sp. strain LBr; type: biochemical
From the text: Using this PCR approach, glyphosate oxidoreductase genes from a number of sources have been isolated. The presence of the glyphosate oxidoreductase activity was confirmed by cloning the glyphosate oxidoreductase gene from chromosomal DNA prepared from Pseudomonas sp. strain LBr (Jacob et al., 1988) and using primers homologous to the N- and C-termini of the LBAA glyphosate oxidoreductase gene and containing the following suitable restriction cloning sites: 5′-[…] ATG-3′ (SEQ ID NO:13) and 5′-[…] AGTAC-3′ (SEQ ID NO:14). Cyclotherm parameters used for these PCR reactions is as follows: • Denature at 94° C. for 1 minute; • Anneal at 60° C. for 2 minutes; • Polymerize at 72° C. for 3 minutes, • 30 cycles, no autoextension, linked to 4° C. incubation. The expected ˜1.3 kb PCR produced was generated and following digestion with NdeI and HindIII, this fragment was cloned into pMON2123 for expression of the encoded enzyme.

## O=C(O)CNCP(=O)(O)O [glyphosate, N-phosphonomethyl-glycine]
[1]; domain switch experiment, v.247 (v1v2v3), substrate glyphosate
  VmKm: 0.34
[1]; v.247
  VmKm (Glyp): .23
[1]; v.247 versus wild type
  lower Km for glyphosate than the wild type glyphosate oxidoreductase: 10 fold
[1]; v.247, pH 7.4, 30° C.
  app Vm (Glyp): 0.6 U/mg
[2]
  Km: 25 mM
